# Laboratory results taken from publication PMC9019100, “Development of NanoLuc-targeting protein degraders and a universal reporter system to benchmark tag-targeted degradation platforms” (Nature Communications, 2022).
# “And” between values parts separate entries of the source, which are not always exact repeats. Equal entries are not always repeated. Where two headings read alike, the source gives them in different places. Peptide text beside a SMILES is read from it. * marks the point of attachment. Cbz = O=C(OCc1ccccc1)*
# Key:
# [1] = target: T1, Halo-EGFP-NanoLuc-FKBP^F36V (H-E-N-F) fusion protein (UniProt P0A3G2+P62942+Q9GV45, A155T/A167V/A172T/A224E/A31E/A60N/A81I/C128F/C176G/D78G/E160K/E257K/F37V/F95D/H272N/I117V/K175M/K195N/K70R/L47V/L54V/L88M/L99Q/M102K/N193R/N227D/P142E/P291S/Q151K/Q38R/Q45L/S2A/S58T/T264A/V71I/Y165I/Y273L/Y87F); format: cell-based
# T1 sequence (Q9GV45 other isoform, or with tags, fused parts or gaps with the stated changes): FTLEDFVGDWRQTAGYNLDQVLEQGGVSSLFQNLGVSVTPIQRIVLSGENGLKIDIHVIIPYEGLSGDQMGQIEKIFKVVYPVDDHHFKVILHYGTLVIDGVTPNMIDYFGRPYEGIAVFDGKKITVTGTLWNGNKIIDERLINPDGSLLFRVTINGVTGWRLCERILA
# T1 sequence (P0A3G2 other isoform, or with tags, fused parts or gaps with the stated changes): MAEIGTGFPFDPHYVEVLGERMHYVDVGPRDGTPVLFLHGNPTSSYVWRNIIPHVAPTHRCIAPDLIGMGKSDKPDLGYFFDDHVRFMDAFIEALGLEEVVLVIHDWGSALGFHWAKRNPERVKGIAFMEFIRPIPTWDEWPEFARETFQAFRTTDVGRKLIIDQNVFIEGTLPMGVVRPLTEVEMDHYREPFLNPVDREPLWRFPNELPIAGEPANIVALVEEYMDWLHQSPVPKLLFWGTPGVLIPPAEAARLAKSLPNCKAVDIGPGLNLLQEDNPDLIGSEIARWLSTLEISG
# T1 sequence (P62942 whole entry F37V, the tested form may be a part): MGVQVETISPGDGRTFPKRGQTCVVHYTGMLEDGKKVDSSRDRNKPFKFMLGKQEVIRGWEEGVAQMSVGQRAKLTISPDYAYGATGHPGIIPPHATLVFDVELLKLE
# [2] = target: T1, Halo-EGFP-NanoLuc-FKBP^F36V (H-E-N-F) fusion protein; format: cell-based; conditions: 125-500 nM, 5 h
# [3] = tested on: wild-type HT29 cells; experiment: Necroptosis assay (PI exclusion, flow cytometry), wild-type HT29 cells, TNF+SM+IDN; format: cell-based, human; conditions: sheet S5F
# Description: To simulate necroptosis, cells were seeded into 96-well plates ±40 ng/mL doxycycline, to induce construct expression, and treated with 100 ng/mL FLAG-TNF (recombinant human, in-house), 500 nM compound A Smac mimetic (kindly gifted by TetraLogics Pharmaceuticals) and 5 μM IDN-6556 (Cayman) or 10 uM Z-VAD-fmk (Selleckchem) overnight (16–24 h). Degrader compounds or a DMSO vehicle control were added for 5 h, as stated in the Fig. legends. Cells were detached using Trypsin-EDTA (Merck) and resuspended in cell supernatants containing 10 μg/mL propidium iodide (PI). PI exclusion analysis was performed using an LSR II flow cytometer (Becton Dickinson, NJ) with 10,000 single-cell events per sample. Flow cytometry data were analysed using WEASEL version 2.7 software (Frank Battye).
# Supplementary Figure 5. […]
# NC4. Data are representative of N = 3 independent experiments. f-h. HT29 cells were stimulated with DMSO (control) or 500 nM of degrader for 5 hours before the addition of TNF (100 ng/mL) + Smac mimetic (compound A; 500 nM-1 µM) + caspase inhibitor; Emricasan (IDN) (5 µM), for 24 hours. Cell death was assessed by flow cytometric analysis of PI exclusion. N = 3 replicates (symbols) is shown, EB; mean ± SD. Data are representative of N = 3 independent experiments. i. Representative flow cytometry gating strategy. Source data are provided as a Source Data file.
# [4] = target: recombinant NanoLuc enzyme (Oplophorus gracilirostris, UniProt Q9GV45, A31E/A60N/A81I/F95D/I117V/K70R/L54V/L99Q/M102K/N193R/P142E/Q151K/Q38R/Q45L/V71I/Y165I); format: biochemical; conditions: replicates
# Chain of recombinant NanoLuc enzyme (Q9GV45 other isoform, or with tags, fused parts or gaps with the stated changes): as the sequence (Q9GV45 other isoform, or with tags, fused parts or gaps with the stated changes) above
# [5] = tested on: NanoLuc; conditions: read-out: IC50 against the enzymatic activity of NanoLuc; cited from earlier work
# [6] = 62.5nM, sheet S3B, replicate wells
# [7] = 250nM, sheet S3B, replicate wells
# [8] = 500nM, sheet S3B, replicate wells
# [9] = 1uM, sheet S3B, replicate wells
smiles,measurement,setting,value
O=C(COCCOCCCCCCCl)NCCCCNc1cccc2c1C(=O)N(C1CCC(=O)NC1=O)C2=O (stereo not drawn) [HC2],Blank corrected (470-80),[1]; [6],420571 and 387799 and 422451 and 372874
same,Fold Change,[1]; [6],29.7356 and 27.4185 and 29.8685 and 26.3633
same,Blank corrected (470-80),[1]; [7],400261 and 371225 and 406289 and 348754
same,Fold Change,[1]; [7],28.2996 and 26.2467 and 28.7258 and 24.6579
same,Blank corrected (470-80),[1]; [8],327362 and 397295 and 324101 and 372826
same,Fold Change,[1]; [8],23.1455 and 28.0899 and 22.9149 and 26.3599
same,Blank corrected (470-80),[1]; [9],379647 and 379271 and 373688 and 369126
same,Fold Change,[1]; [9],26.8422 and 26.8156 and 26.4208 and 26.0983
O=C1CCC(N2C(=O)c3cccc(OCCOCCCCCCCl)c3C2=O)C(=O)N1 (stereo not drawn) [HC3],Blank corrected (470-80),[1]; [6],383533 and 318115 and 323446 and 301555
same,Fold Change,[1]; [6],27.1169 and 22.4917 and 22.8686 and 21.3208
same,Blank corrected (470-80),[1]; [7],323125 and 344451 and 351301 and 328848
same,Fold Change,[1]; [7],22.8459 and 24.3537 and 24.838 and 23.2505
same,Blank corrected (470-80),[1]; [8],366778 and 337071 and 347923 and 313983
same,Fold Change,[1]; [8],25.9323 and 23.8319 and 24.5992 and 22.1995
same,Blank corrected (470-80),[1]; [9],388451 and 372097 and 370806 and 376397
same,Fold Change,[1]; [9],27.4646 and 26.3084 and 26.2171 and 26.6124
CC(C)C[C@@H](C=O)NC(=O)[C@H](CC(C)C)NC(=O)[C@H](CC(C)C)NC(=O)OCc1ccccc1 [MG132] (Cbz-Leu-Leu-Leu-aldehyde),Blank corrected Raw Data (470-80),"[1]; +dox, MG132 (10uM) alone (DMSO instead of PROTAC)",83521 and 88764 and 88216 and 91215
same,Fold Change,"[1]; +dox, MG132 (10uM) alone (DMSO instead of PROTAC), fold of -dox well",83.7723 and 89.0311 and 88.4814 and 91.4895
CCc1cccc(N(CC)C(=O)Cn2c(C(=O)NC3CCC(C(=O)NCCCCCCCC(=O)NCCCCCCOc4cccc5c4C(=O)N(C4CCC(=O)NC4=O)C5=O)CC3)cc3ccccc32)c1 (stereo not drawn) [NC3],"degradation of the H-E-N-F substrate protein by Western blot, comparison of NanoTACs",[2],consistently outperforming the first analogue NC1
same,viable cells (PI exclusion),[3]; TNF+SM+IDN,7.5 and 6.4 and 5.5
same,viable cells (PI exclusion),[3]; Unt (no death stimulus),69.5 and 75.6 and 73.1
CCc1cccc(N(CC)C(=O)Cn2c(C(=O)NC3CCC(C(=O)NCCCCCCCC(=O)NCCCCNc4cccc5c4C(=O)N(C4CCC(=O)N(C)C4=O)C5=O)CC3)cc3ccccc32)c1 (stereo not drawn) [NC*],"NanoLuc luminescence, Blank corrected (470-80)","[1]; 62.5nM, 2h, replicate wells",6632 and 6164 and 5786
same,"NanoLuc luminescence, Blank corrected (470-80)","[1]; 62.5nM, 4h, replicate wells",6756 and 7430 and 5962 and 6824
same,"NanoLuc luminescence, Blank corrected (470-80)","[1]; 62.5nM, 6h, replicate wells",6820 and 5574 and 6168
same,"NanoLuc luminescence, Blank corrected (470-80)","[1]; 62.5nM, 8h, replicate wells",5136 and 5355 and 4609
same,"NanoLuc luminescence, Blank corrected (470-80)","[1]; 62.5nM, 10h, replicate wells",4237 and 3067 and 4015
same,"NanoLuc luminescence, Blank corrected (470-80)","[1]; 250nM, 2h, replicate wells",1984 and 2219 and 1857
same,"NanoLuc luminescence, Blank corrected (470-80)","[1]; 250nM, 4h, replicate wells",1613 and 1684 and 1340
same,"NanoLuc luminescence, Blank corrected (470-80)","[1]; 250nM, 6h, replicate wells",1527 and 1526 and 1826 and 1766
same,"NanoLuc luminescence, Blank corrected (470-80)","[1]; 250nM, 8h, replicate wells",1602 and 1230 and 1627
same,"NanoLuc luminescence, Blank corrected (470-80)","[1]; 250nM, 10h, replicate wells",919 and 829 and 1005
same,"NanoLuc luminescence, Blank corrected (470-80)","[1]; 500nM, 2h, replicate wells",1232 and 850 and 1011 and 825
same,"NanoLuc luminescence, Blank corrected (470-80)","[1]; 500nM, 4h, replicate wells",934 and 992 and 902
same,"NanoLuc luminescence, Blank corrected (470-80)","[1]; 500nM, 6h, replicate wells",854 and 738 and 679 and 842
same,"NanoLuc luminescence, Blank corrected (470-80)","[1]; 500nM, 8h, replicate wells",717 and 620 and 849
same,"NanoLuc luminescence, Blank corrected (470-80)","[1]; 500nM, 10h, replicate wells",481 and 501 and 461
CCc1cccc(N(CC)C(=O)Cn2c(C(=O)N[C@H]3CC[C@H](C(=O)NCCCCCCCC(=O)O)CC3)cc3ccccc32)c1 [NanoLuc Inhibtor 2],NanoLuc luminescence (enzyme activity remaining),[4]; [uM] -0.30103 (log10 concentration),0.9
same,NanoLuc luminescence (enzyme activity remaining),[4]; [uM] -0.82391 (log10 concentration),1.5 (2×) and 1.6
same,NanoLuc luminescence (enzyme activity remaining),[4]; [uM] -1.34679 (log10 concentration),4.4 and 4.7 and 4.6
same,NanoLuc luminescence (enzyme activity remaining),[4]; [uM] -1.86967 (log10 concentration),23.6 and 24.5 and 24.3
same,NanoLuc luminescence (enzyme activity remaining),[4]; [uM] -2.39254 (log10 concentration),55.8 and 56.1 and 58
same,NanoLuc luminescence (enzyme activity remaining),[4]; [uM] -2.91542 (log10 concentration),74.8 and 76.4 and 76
same,NanoLuc luminescence (enzyme activity remaining),[4]; [uM] -3.4383 (log10 concentration),81.7 and 82.7 and 82.1
CCN(C(=O)Cn1c(C(=O)N[C@H]2CC[C@H](C(=O)NCCCCCCCC(=O)O)CC2)cc2sccc21)c1cccc(C)c1 [NanoLuc inhibitor 1],IC50,[5],31 nM
CCc1cccc(N(CC)C(=O)Cn2c(C(=O)N[C@H]3CC[C@H](C(=O)NCCCCCCCC(=O)O)CC3)cc3ccccc32)c1 [NanoLuc inhibitor 2],IC50,[5],4.2 nM
